Values quoted from earlier work, collected in PubChem BioAssay AID1259409 (Chemical Carcinogenesis Research Information System (CCRIS), 2018).

Tested on: rodent chemically induced tumor inhibition, incidence and multiplicity
Experiment: CCRIS tumor inhibitor studies
Conditions: Dose [Inhibitor]: 0, Route [Inhibitor]: ORAL

C[C@]12CC[C@H](O)CC1=CC[C@@H]1[C@@H]2CC[C@]2(C)C(=O)CC[C@@H]12
tumour outcome (control, treated, inhibition, significance) (Carcinogen: N-BUTYL-N-(4-HYDROXYBUTYL)NITROSAMINE, 3817-11-6, 0.6% IN DIET BEGINNING 3 D POST CARCINOGEN TREATMENT AND CONTINUING FOR 32 WK (STUDY DURATION: 36 WK), Species: RAT, Strain/Sex: F344/MALE, Target Tissue: Type of Lesion: URINARY BLADDER: PAPILLOMA, Dose [Carcinogen]: 0.05% IN DRINKING WATER FOR 4 WK, Promoter: BUTYLATED HYDROXYANISOLE, 25013-16-5): 12/15 (80%), 6/15 (40%), 50%, p<0.05
tumour outcome (control, treated, inhibition, significance) (Carcinogen: N-METHYL-N'-NITRO-N-NITROSOGUANIDINE, 70-25-7, 55 PPM IN DIET FOR 6 MO BEGINNING 3 MO POST CARCINOGEN TREATMENT (STUDY DURATION: 9 MO), Species: FISH, Strain/Sex: RAINBOW TROUT/MALE,FEMALE, Target Tissue: Type of Lesion: STOMACH: TUMOR, Dose [Carcinogen]: 35 PPM IN WATER FOR 30 MIN ONCE, Promoter: NONE USED): 38%, 34%, 11%, not significant
tumour outcome (control, treated, inhibition, significance) (Carcinogen: N-METHYL-N'-NITRO-N-NITROSOGUANIDINE, 70-25-7, 55 PPM IN DIET FOR 6 MO BEGINNING 3 MO POST CARCINOGEN TREATMENT (STUDY DURATION: 9 MO), Species: FISH, Strain/Sex: RAINBOW TROUT/MALE,FEMALE, Target Tissue: Type of Lesion: SWIN BLADDER: TUMOR, Dose [Carcinogen]: 35 PPM IN WATER FOR 30 MIN ONCE, Promoter: NONE USED): 13%, 3%, 77%, p<0.05
tumour outcome (control, treated, inhibition, significance) (Carcinogen: N-METHYL-N'-NITRO-N-NITROSOGUANIDINE, 70-25-7, 111 PPM IN DIET FOR 6 MO BEGINNING 3 MO POST CARCINOGEN TREATMENT (STUDY DURATION: 9 MO), Species: FISH, Strain/Sex: RAINBOW TROUT/MALE,FEMALE, Target Tissue: Type of Lesion: STOMACH: TUMOR, Dose [Carcinogen]: 35 PPM IN WATER FOR 30 MIN ONCE, Promoter: NONE USED): 38%, 27%, 29%, not significant
tumour outcome (control, treated, inhibition, significance) (Carcinogen: N-METHYL-N'-NITRO-N-NITROSOGUANIDINE, 70-25-7, 111 PPM IN DIET FOR 6 MO BEGINNING 3 MO POST CARCINOGEN TREATMENT (STUDY DURATION: 9 MO), Species: FISH, Strain/Sex: RAINBOW TROUT/MALE,FEMALE, Target Tissue: Type of Lesion: SWIM BLADDER: TUMOR, Dose [Carcinogen]: 35 PPM IN WATER FOR 30 MIN ONCE, Promoter: NONE USED): 13%, 3%, 77%, p<0.05
tumour outcome (control, treated, inhibition, significance) (Carcinogen: N-METHYL-N'-NITRO-N-NITROSOGUANIDINE, 70-25-7, 222 PPM IN DIET FOR 6 MO BEGINNING 3 MO POST CARCINOGEN TREATMENT (STUDY DURATION: 9 MO), Species: FISH, Strain/Sex: RAINBOW TROUT/MALE,FEMALE, Target Tissue: Type of Lesion: STOMACH: TUMOR, Dose [Carcinogen]: 35 PPM IN WATER FOR 30 MIN ONCE, Promoter: NONE USED): 38%, 31%, 18%, not significant
tumour outcome (control, treated, inhibition, significance) (Carcinogen: N-METHYL-N'-NITRO-N-NITROSOGUANIDINE, 70-25-7, 222 PPM IN DIET FOR 6 MO BEGINNING 3 MO POST CARCINOGEN TREATMENT (STUDY DURATION: 9 MO), Species: FISH, Strain/Sex: RAINBOW TROUT/MALE,FEMALE, Target Tissue: Type of Lesion: SWIM BLADDER: TUMOR, Dose [Carcinogen]: 35 PPM IN WATER FOR 30 MIN ONCE, Promoter: NONE USED): 13%, 3%, 77%, p<0.05
tumour outcome (control, treated, inhibition, significance) (Carcinogen: N-METHYL-N'-NITRO-N-NITROSOGUANIDINE, 70-25-7, 444 PPM IN DIET FOR 6 MO BEGINNING 3 MO POST CARCINOGEN TREATMENT (STUDY DURATION: 9 MO), Species: FISH, Strain/Sex: RAINBOW TROUT/MALE,FEMALE, Target Tissue: Type of Lesion: STOMACH: TUMOR, Dose [Carcinogen]: 35 PPM IN WATER FOR 30 MIN ONCE, Promoter: NONE USED): 38%, 36%, 5%, not significant
tumour outcome (control, treated, inhibition, significance) (Carcinogen: N-METHYL-N'-NITRO-N-NITROSOGUANIDINE, 70-25-7, 444 PPM IN DIET FOR 6 MO BEGINNING 3 MO POST CARCINOGEN TREATMENT (STUDY DURATION: 9 MO), Species: FISH, Strain/Sex: RAINBOW TROUT/MALE,FEMALE, Target Tissue: Type of Lesion: SWIM BLADDER: TUMOR, Dose [Carcinogen]: 35 PPM IN WATER FOR 30 MIN ONCE, Promoter: NONE USED): 13%, 8%, 38%, not significant
tumour outcome (control, treated, inhibition, significance) (Carcinogen: N-METHYL-N'-NITRO-N-NITROSOGUANIDINE, 70-25-7, 888 PPM IN DIET FOR 6 MO BEGINNING 3 MO POST CARCINOGEN TREATMENT (STUDY DURATION: 9 MO), Species: FISH, Strain/Sex: RAINBOW TROUT/MALE,FEMALE, Target Tissue: Type of Lesion: STOMACH: TUMOR, Dose [Carcinogen]: 35 PPM IN WATER FOR 30 MIN ONCE, Promoter: NONE USED): 38%, 26%, 32%, not significant
tumour outcome (control, treated, inhibition, significance) (Carcinogen: N-METHYL-N'-NITRO-N-NITROSOGUANIDINE, 70-25-7, 888 PPM IN DIET FOR 6 MO BEGINNING 3 MO POST CARCINOGEN TREATMENT (STUDY DURATION: 9 MO), Species: FISH, Strain/Sex: RAINBOW TROUT/MALE,FEMALE, Target Tissue: Type of Lesion: SWIM BLADDER: TUMOR, Dose [Carcinogen]: 35 PPM IN WATER FOR 30 MIN ONCE, Promoter: NONE USED): 13%, 6%, 54%, not significant
tumour outcome (control, treated, inhibition, significance) (Carcinogen: N-METHYL-N-NITROSOUREA, 684-93-5, 0.1% IN DIET FOR DURATION OF STUDY BEGINNING 1 WK PRIOR TO CARCINOGEN DOSE (STUDY DURATION: 187 D), Species: RAT, Strain/Sex: SPRAGUE-DAWLEY/FEMALE, Target Tissue: Type of Lesion: MAMMARY GLAND: CARCINOMA, Dose [Carcinogen]: 50 MG/KG ONCE AT 50 D OF AGE, Promoter: NONE USED): 100%, 68%, 32%, p<0.05
tumour outcome (control, treated, inhibition, significance) (Carcinogen: N-METHYL-N-NITROSOUREA, 684-93-5, 0.2% IN DIET FOR 2 WK BEGINNING 1 WK PRIOR TO CARCINOGEN DOSE (STUDY DURATION: 187 D), Species: RAT, Strain/Sex: SPRAGUE-DAWLEY/FEMALE, Target Tissue: Type of Lesion: MAMMARY GLAND: CARCINOMA, Dose [Carcinogen]: 50 MG/KG ONCE AT 50 D OF AGE, Promoter: NONE USED): 100%, 100%, 0%, not significant
tumour outcome (control, treated, inhibition, significance) (Carcinogen: N-METHYL-N-NITROSOUREA, 684-93-5, 0.2% IN DIET FOR DURATION OF STUDY BEGINNING 1 WK POST CARCINOGEN DOSE (STUDY DURATION: 180 D), Species: RAT, Strain/Sex: SPRAGUE-DAWLEY/FEMALE, Target Tissue: Type of Lesion: MAMMARY GLAND: CARCINOMA, Dose [Carcinogen]: 50 MG/KG ONCE AT 50 D OF AGE, Promoter: NONE USED): 100%, 67%, 33%, p<0.05
tumour outcome (control, treated, inhibition, significance) (Carcinogen: N-METHYL-N-NITROSOUREA, 684-93-5, 0.2% IN DIET FOR DURATION OF STUDY BEGINNING 1 WK PRIOR TO CARCINOGEN DOSE (STUDY DURATION: 187 D), Species: RAT, Strain/Sex: SPRAGUE-DAWLEY/FEMALE, Target Tissue: Type of Lesion: MAMMARY GLAND: CARCINOMA, Dose [Carcinogen]: 50 MG/KG ONCE AT 50 D OF AGE, Promoter: NONE USED): 100%, 48%, 52%, p<0.05
